Experimental data: patent US8198405B2, “Stabilized alpha helical peptides and uses thereof” (Dana-Farber Cancer Institute, Inc., priority 2003, dated 2012)
Where a SMILES comes first, the peptide text is derived from it. Bridges are numbered along the chain shown (N, C = ends). [ ]: non-standard residue; d: D form. S5 = C=CCCC[C@](C)(N)C(=O)O; Nle = CCCC[C@H](N)C(=O)O

Experiments:
[1] = target: T1, BCL-2 (Homo sapiens, UniProt P10415); assay: Fluorescence polarization direct binding assay; details: fluorescinated compounds 25 nM, GST-BCL2 25 nM-1000 nM (FIG. 11d)
T1 construct: containing the plasmid encoding C-terminal deleted GST-BCL-2; made in house; host or cells: Escherichia coli BL21 (DE3)
T1 sequence (P10415 1-218 limits assumed): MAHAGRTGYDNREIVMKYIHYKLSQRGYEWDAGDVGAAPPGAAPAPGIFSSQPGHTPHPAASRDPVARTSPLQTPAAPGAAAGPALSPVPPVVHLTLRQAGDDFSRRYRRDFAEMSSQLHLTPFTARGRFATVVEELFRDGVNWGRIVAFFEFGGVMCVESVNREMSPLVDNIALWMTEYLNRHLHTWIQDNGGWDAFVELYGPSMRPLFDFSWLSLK

[2] = target: T2, BAX (Homo sapiens, UniProt Q07812); assay: Fluorescence polarization direct binding assay; details: full-length BAX
T2 construct: Full-length BAX protein was prepared as previously described (Suzuki et al, Cell, 103:645); made in house
T2 sequence (Q07812 whole entry): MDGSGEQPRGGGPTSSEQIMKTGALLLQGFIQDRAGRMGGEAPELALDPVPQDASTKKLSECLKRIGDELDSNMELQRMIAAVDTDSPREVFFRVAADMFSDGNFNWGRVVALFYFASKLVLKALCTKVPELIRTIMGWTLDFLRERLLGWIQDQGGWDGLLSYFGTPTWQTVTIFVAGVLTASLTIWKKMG

[3] = tested on: purified mouse liver mitochondria; assay: Cytochrome c release assay (ELISA), wild-type mitochondria; format: biochemical; details: wild-type versus Bak-/- mitochondria
Procedure: In order to assess the biological activity of SAHB3BID compounds in vitro, cytochrome c release assays were performed using purified mouse liver mitochondria. Mitochondria (0.5 mg/mL) were incubated for 40 minutes with 1 μM and 100 nM of SAHB3BID compounds and then supernatants and mitochondrial fractions isolated and subjected to cytochrome c ELISA assay. Background cytochrome c release (10-15%) was subtracted from total release for each sample, and the percent actual cytochrome c release was determined (FIG. 12). […] In each case, except for the double cross-linked SAHB3BIDE (which may lack critical amino acids for biological activity or, in this case, be overly constrained by the dual cross-links), there is approximately a doubling of cytochrome c release in response to 1 μM SAHB3BID compounds compared to the unmodified peptide (FIG. 12a). […] BID mutants with defective BH3 domains can promote BAK-independent cytochrome c mobilization (Scorrano et al, Dev Cell, 2:55), and the highly hydrophobic BID helix 6 has been implicated in this activity (L. Scorrano, S. J. Korsmeyer, unpublished results).
Similar to the above experiment, mouse liver mitochondria from wild-type and Bak−/− mice were exposed to the compounds at various concentrations and assayed for cytochrome c release at 10 and 40 minute intervals. […] Thus, SAHB3BIDA and B display a 10-25 fold enhancement in cytochrome c release activity at the 40 minute time point.

[4] = tested on: Jurkat leukemia cells; assay: Apoptosis by annexin V flow cytometry; format: cell-based; details: 10 μM, 20 hours
Procedure: Indeed, the pro-apoptotic effect of 10 uM SAHB3BIDA and B on “wild-type” Jurkats was abolished in the BCL-2 overexpressing cells. […] The observed pro-apoptotic effects are selectively abolished by gly to glu mutation of SAHB3BIDA and cellular overexpression of BCL-2, findings which underscore that SAHB3BID compounds function via the defined mitochondrial apoptosis pathway.

[5] = tested on: REH, MV4; 11, and SEMK2 cell lines; assay: Apoptosis induction assays; format: cell-based

`CCCC[C@H](NC(=O)[C@]1(C)CCCC=CCCC[C@](C)(NC(=O)[C@H](C)NC(=O)[C@H](CC(C)C)NC(=O)[C@H](Cc2c[nH]cn2)NC(=O)[C@H](CCCNC(=N)N)NC(=O)[C@H](C)NC(=O)[C@@H](NC(=O)[C@H](CC(N)=O)NC(=O)[C@H](CCCNC(=N)N)NC(=O)[C@@H](NC(=O)[C@@H](NC(=O)[C@H](CC(=O)O)NC(=O)[C@H](CCC(=O)O)NC(C)=O)[C@@H](C)CC)[C@@H](C)CC)[C@@H](C)CC)C(=O)N[C@@H](C(C)C)C(=O)N[C@@H](CCC(=O)O)C(=O)N[C@@H](CC(=O)O)C(=O)N1)C(=O)N[C@@H](CC(=O)O)C(=O)N[C@@H](CCCNC(=N)N)C(=O)N[C@@H](CO)C(=O)N[C@H](C(=O)N[C@@H](Cc1c[nH]c2ccccc12)C(N)=O)[C@@H](C)CC` [SAHB3BID(G→E)A] (Ac-EDIIRNIARHLA[S5]VED[S5][Nle]DRSIW-NH2; staple 13-17; N-terminus assumed) was tested, and the Kd [1] was 483 nM, the “BAX binding, in words” value [2] was “measurable binding” and the “Bak dependence of cytochrome c release, in words” value [3] was “only Bak-independent cytochrome c release”. For the same compound, the “apoptosis induction, in words” value [4] was “no effect” and the “apoptosis induction, in words” value [5] was “no effect”.
